Test results published in patent US20210261512A1, “NOVEL COMPOUNDS” (INFLAZOME LIMITED, priority 2018, published 2021).

Columns and labels:
NLRP3 [1] = biological target: T1, NLRP3 (Homo sapiens, UniProt Q96P20); assay: Human whole blood IL1β release assay; format: cell-based; details: LPS 1 μg/ml, nigericin 10 μM, IL-1β AlphaLisa, 10 μM top dose (Example 2: top dose of 30 μM), read-out: HWB IC50
Method in brief: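 Healthy-donor heparinised human whole blood with 1 μg/ml LPS, compound (8-point half-log dilution, 10 μM top dose unless stated; 0.1% DMSO vehicle) for 3 h at 37 °C, then nigericin 10 μM final for 1 h. Supernatant IL-1β by AlphaLISA; IC50 from 4-parameter variable-slope fit.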

NLRP3 [2] = biological target: T1, NLRP3; assay: THP-1 cells pyroptosis assay; format: cell-based; parameters: Seed THP-1 cells (25,000 cells/well) containing 1.0 μg/ml LPS; host or cells: THP-1; details: LPS 1.0 μg/ml, nigericin 5 μM, resazurin readout, 10 μM top dose (Example 2: top dose of 30 μM)
Method in brief: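 Pyroptosis induced by 5 μM nigericin (1 h) in LPS-primed (1 μg/ml) THP-1 cells, 25,000/well in serum-free RPMI, after 3 h compound pre-treatment (8 points, 10 μM top unless stated). Surviving cells measured with 100 μM resazurin, Ex 560/Em 590; IC50 via variable-slope 4-parameter regression.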

T1 sequence (Q96P20 whole entry): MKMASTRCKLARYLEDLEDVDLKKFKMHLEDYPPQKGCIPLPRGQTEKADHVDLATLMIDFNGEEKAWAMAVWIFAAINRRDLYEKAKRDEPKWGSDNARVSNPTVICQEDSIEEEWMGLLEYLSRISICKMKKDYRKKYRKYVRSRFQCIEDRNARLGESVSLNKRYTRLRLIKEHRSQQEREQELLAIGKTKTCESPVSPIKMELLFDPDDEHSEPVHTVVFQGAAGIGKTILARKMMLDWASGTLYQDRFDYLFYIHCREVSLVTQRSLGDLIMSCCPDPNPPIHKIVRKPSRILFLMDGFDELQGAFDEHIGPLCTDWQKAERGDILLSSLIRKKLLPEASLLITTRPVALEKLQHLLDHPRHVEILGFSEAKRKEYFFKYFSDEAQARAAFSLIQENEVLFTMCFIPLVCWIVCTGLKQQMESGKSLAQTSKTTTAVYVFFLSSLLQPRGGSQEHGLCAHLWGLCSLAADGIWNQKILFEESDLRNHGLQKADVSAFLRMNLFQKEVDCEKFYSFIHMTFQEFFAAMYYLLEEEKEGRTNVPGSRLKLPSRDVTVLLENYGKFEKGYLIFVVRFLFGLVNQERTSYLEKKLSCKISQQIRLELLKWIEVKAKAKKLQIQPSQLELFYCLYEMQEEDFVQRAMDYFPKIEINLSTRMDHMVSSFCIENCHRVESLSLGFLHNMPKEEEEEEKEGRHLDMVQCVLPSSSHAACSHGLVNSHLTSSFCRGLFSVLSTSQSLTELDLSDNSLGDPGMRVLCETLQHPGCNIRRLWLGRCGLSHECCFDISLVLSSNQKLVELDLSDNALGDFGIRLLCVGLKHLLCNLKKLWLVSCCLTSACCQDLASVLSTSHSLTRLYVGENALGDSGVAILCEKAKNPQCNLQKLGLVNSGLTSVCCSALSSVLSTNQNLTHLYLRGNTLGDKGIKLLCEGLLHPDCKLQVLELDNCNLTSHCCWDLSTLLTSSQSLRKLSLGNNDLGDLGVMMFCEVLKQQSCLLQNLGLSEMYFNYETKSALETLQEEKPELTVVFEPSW

Structure (SMILES)	IC50 (NLRP3 [1])	IC50 (NLRP3 [2])
COc1cc(-c2cc(F)cc(C(C)C)c2Nc2nnc(S(=O)(=O)N3CCC4(CCN4C)CC3)[nH]2)ccn1 [Example 249, N-(4-fluoro-2-isopropyl-6-(2-methoxypyridin-4-yl)phenyl)-5-((1-methyl-1,7-diazaspiro[3.5]nonan-7-yl)sulfonyl)-4H-1,2,4-triazol-3-amine]	≤ 5000 nM	≤ 500 nM
COc1cc(-c2cc(F)cc(C(C)C)c2Oc2nnc(S(=O)(=O)N3CCC4(CCCN4C)CC3)[nH]2)ccn1 [Example 251, 8-((5-(4-fluoro-2-isopropyl-6-(2-methoxypyridin-4-yl)phenoxy)-4H-1,2,4-triazol-3-yl)sulfonyl)-1-methyl-1,8-diazaspiro[4.5]decane]	≤ 5000 nM	≤ 500 nM
O=S(=O)(c1nnc(Nc2c3c(cc4c2CCC4)CCC3)[nH]1)N1CCC2(CCN2C2CC2)CC1 [Example 254, 5-((1-cyclopropyl-1,7-diazaspiro[3.5]nonan-7-yl)sulfonyl)-N-(1,2,3,5,6,7-hexahydro-s-indacen-4-yl)-4H-1,2,4-triazol-3-amine]	≤ 5000 nM	≤ 500 nM
CCN1CCC12CCN(S(=O)(=O)c1nnc(Nc3c4c(cc5c3CCC5)CCC4)[nH]1)CC2 [Example 257, 5-((1-ethyl-1,7-diazaspiro[35]nonan-7-yl)sulfonyl)-N-(1,2,3,5,6,7-hexahydro-s-indacen-4-yl)-4H-1,2,4-triazol-3-amine]	≤ 500 nM	≤ 500 nM
COc1cc(-c2ccc3c(c2Nc2nnc(S(=O)(=O)N4CCC5(CCCN5C)CC4)[nH]2)CCC3)ccn1 [Example 258, N-(5-(2-methoxypyridin-4-yl)-2,3-dihydro-1H-inden-4-yl)-5-((1-methyl-1,8-diazaspiro[4.5]decan-8-yl)sulfonyl)-4H-1,2,4-triazol-3-amine]	≤ 1000 nM	≤ 500 nM

The remaining lines, values ahead:

IC50 (NLRP3 [1])	IC50 (NLRP3 [2])	Structure (SMILES)
≤ 5000 nM	≤ 500 nM	COc1cc(-c2cc(F)cc(C(C)C)c2Nc2nnc(S(=O)(=O)N3CCC4(CCCN4C)CC3)[nH]2)ccn1 [Example 260, N-(4-fluoro-2-isopropyl-6-(2-methoxypyridin-4-yl)phenyl)-5-((1-methyl-1,8-diazaspiro[4.5]decan-8-yl)sulfonyl)-4H-1,2,4-triazol-3-amine]
≤ 1000 nM	≤ 500 nM	COc1cc(-c2cc(F)cc(C(C)C)c2Nc2nnc(S(=O)(=O)N3CCC(N(C)C)CC3)[nH]2)ccn1 [Example 261, 1-((5-((4-fluoro-2-isopropyl-6-(2-methoxypyridin-4-yl)phenyl)amino)-4H-1,2,4-triazol-3-yl)sulfonyl)-N,N-dimethylpiperidin-4-amine]
≤ 1000 nM	≤ 5000 nM	CN1CCC2(CC1)CN(S(=O)(=O)c1nnc(Nc3c4c(cc5c3CCC5)CCC4)[nH]1)C2 [Example 275, N-(1,2,3,5,6,7-hexahydro-s-indacen-4-yl)-5-((7-methyl-2,7-diazaspiro[3-5]nonan-2-yl)sulfonyl)-4H-1,2,4-triazol-3-amine]
≤ 1000 nM	≤ 500 nM	CN1CCC2(CCN(S(=O)(=O)c3nnc(Nc4c5c(cc6c4CCC6)CCC5)[nH]3)C2)C1 (stereo not shown) [Example 277, N-(1,2,3,5,6,7-hexahydro-s-indacen-4-yl)-5-((7-methyl-2,7-diazaspiro[4.4]nonan-2-yl)sulfonyl)-4H-1,2,4-triazol-3-amine]
≤ 500 nM	≤ 500 nM	CNCC1CN(S(=O)(=O)c2nnc(Nc3c4c(cc5c3CCC5)CCC4)[nH]2)C1 [Example 279, N-(1,2,3,5,6,7-hexahydro-s-indacen-4-yl)-5-((3-((methylamino)methyl)azetidin-1-yl)sulfonyl)-4H-1,2,4-triazol-3-amine]
≤ 10000 nM	≤ 5000 nM	CN(C)CC1CCN(S(=O)(=O)c2nnc(Oc3c4c(cc5c3CCC5)CCC4)[nH]2)C1 (stereo not shown) [Example 286, 1-(1-((5-((1,2,3,5,6,7-hexahydro-s-indacen-4-yl)oxy)-4H-1,2,4-triazol-3-yl)sulfonyl)pyrrolidin-3-yl)-N,N-dimethylmethanamine]
